Assay results from patent US10912764B2, “Salinosporamides and methods of use thereof” (The Regents of the University of California, priority 2002, dated 2021).
Converted amounts (≈) assume the structure as drawn. Read-outs that look alike come from different tables or passages of the source.

What was measured:
[1] = tested on: Candida albicans (amphoterocin B resistant); experiment: Antifungal screening, Candida albicans (amphoterocin B resistant); type: cell-based
[2] = Solubility in organic solvents; conditions: CHCl3, methanol, and other polar solvents like DMSO, acetone, acetonitrile, benzene, pyridine, N,N-dimethyformamide
HCT-116 = HCT-116 human colon cancer cell cytotoxicity assay
[3] = tested on: Enterococcus faecium (vanomycin resistant); experiment: Antibacterial screening, Enterococcus faecium; type: cell-based
[4] = tested on: Staphylococcus aureus (methecillin resistant); experiment: Antibacterial screening, Staphylococcus aureus; type: cell-based
Candida albicans = experiment: Antifungal screening, Candida albicans; type: cell-based; conditions: antifungal activity
[5] = HCT-116, read-out: IC50, cytotoxic activity against human colon cancer cells

With `C[C@@]12OC(=O)[C@]1([C@@H](O)[C@@H]1C=CCCC1)NC(=O)[C@@H]2CCCl` [Salinosporamide A] the IC50 [1] was greater than 250 µg/mL, the solubility [2] was “soluble” and the IC50 (HCT-116; HCT-116, read-out: IC50, HCT-116) was 0.011 µg/mL (≈ 0.0351 µM). The IC50 (HCT-116; [5]) was 0.011 µg/mL (≈ 0.0351 µM), the “antibacterial activity, Enterococcus faecium” value [3] was “no antibacterial activity” and the IC50 ([3]; Enterococcus faecium) was greater than 250 µg/mL. The “antibacterial activity, Staphylococcus aureus” value [4] was “no antibacterial activity”, the IC50 ([4]; Staphylococcus aureus) was greater than 250 µg/mL and the IC50 (Candida albicans) was 250 µg/mL (≈ 797 µM).

`COc1cc([C@@H]2c3cc4c(cc3[C@@H](O[C@@H]3O[C@@H]5CO[C@@H](C)O[C@H]5[C@H](O)[C@H]3O)[C@H]3COC(=O)[C@H]23)OCO4)cc(OC)c1O` [etoposide, reference compound] showed an IC50 (HCT-116; [5]) of 0.828 µg/mL (≈ 1.41 µM).
